Laboratory results: PubChem BioAssay AID1918953 (Molecular Pharmacology Branch, DTP, NCI, 2023)

System: MDA-MB-231 complex spheroid viability
Assay: Anticancer human tumor MDA-MB-231/ATCC cell line growth inhibition;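 further: drug exposure lasted 7 days starting on day 3 of spheroid growth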
Details: for IC50: curve of first compound; for viability, T/C: stronger effect = lower value
In short: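 Complex spheroids of tumor cells with HUVEC and human MSCs, exposed to iadademstat combined with other agents. Each agent tested in half-log steps from near clinical Cmax (else 10 microM top), DMSO ≤0.25%.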

[1] = second compound 0.1 µM, first compound 0.0316 µM
[2] = second compound 0.1 µM, first compound 0.1 µM
[3] = second compound 0.1 µM, first compound 0.316 µM
[4] = second compound 0.1 µM, first compound 1 µM
[5] = second compound 0.1 µM, first compound 3.16 µM
[6] = second compound 0.1 µM, first compound 10 µM
[7] = second compound 0.316 µM, first compound 0.0316 µM
[8] = second compound 0.316 µM, first compound 0.1 µM
[9] = second compound 0.316 µM, first compound 0.316 µM
[10] = second compound 0.316 µM, first compound 1 µM
[11] = second compound 0.316 µM, first compound 3.16 µM
[12] = second compound 0.316 µM, first compound 10 µM
[13] = second compound 1 µM, first compound 0.0316 µM
[14] = second compound 1 µM, first compound 0.1 µM
[15] = second compound 1 µM, first compound 0.316 µM
[16] = second compound 1 µM, first compound 1 µM
[17] = second compound 1 µM, first compound 3.16 µM
[18] = second compound 1 µM, first compound 10 µM
[19] = second compound 3.16 µM, first compound 0.0316 µM
[20] = second compound 3.16 µM, first compound 0.1 µM
[21] = second compound 3.16 µM, first compound 0.316 µM
[22] = second compound 3.16 µM, first compound 1 µM
[23] = second compound 3.16 µM, first compound 3.16 µM
[24] = second compound 3.16 µM, first compound 10 µM
[25] = second compound 10 µM, first compound 0.0316 µM
[26] = second compound 10 µM, first compound 0.1 µM
[27] = second compound 10 µM, first compound 0.316 µM
[28] = second compound 10 µM, first compound 1 µM
[29] = second compound 10 µM, first compound 3.16 µM
[30] = second compound 10 µM, first compound 10 µM

Compound | IC50 (second compound 0.1 µM) [nM] | IC50 (second compound 0.316 µM) [nM] | IC50 (second compound 1 µM) [nM] | IC50 (second compound 3.16 µM) [nM] | IC50 (second compound 10 µM) [nM] | viability, T/C [1] [%] | viability, T/C [2] [%] | viability, T/C [3] [%] | viability, T/C [4] [%] | viability, T/C [7] [%] | viability, T/C [8] [%] | viability, T/C [9] [%] | viability, T/C [10] [%] | viability, T/C [13] [%] | viability, T/C [14] [%] | viability, T/C [15] [%] | viability, T/C [16] [%] | viability, T/C [19] [%] | viability, T/C [20] [%] | viability, T/C [21] [%] | further results
CC(C)c1c(-c2ccccc2)nc2c(C#N)c[nH]n2c1=O + NC1CC1c1ccc(-c2cccc(O)c2)cc1 | > 10000 | > 10000 | > 10000 | > 10000 | < 31.6 | 82.9 | 84.7 | 82 | 85.4 | 71 | 69.8 | 70.4 | 63.1 | 69.4 | 69.5 | 70.7 | 63.6 | 68.5 | 65.1 | 71 | viability, T/C [5]: 83%; viability, T/C [6]: 82.4%; viability, T/C [11]: 76.2%; viability, T/C [12]: 62%; viability, T/C [17]: 58.3%; viability, T/C [18]: 52.9%; viability, T/C [22]: 68%; viability, T/C [23]: 62.7%; viability, T/C [24]: 56.5%; viability, T/C [25]: 44.3%; viability, T/C [26]: 42.9%; viability, T/C [27]: 50.8%; viability, T/C [28]: 51.5%; viability, T/C [29]: 44.2%; viability, T/C [30]: 45.2%
CC1COCCN1c1cc(-c2ccnn2C)c2ccnc(-c3ccn[nH]3)c2n1 (stereo not given) + NC1CC1c1ccc(-c2cccc(O)c2)cc1 | < 3.16 | < 3.16 | < 3.16 | < 3.16 | < 3.16 | 20.5 | 16.4 | 15.8 | 21.4 | 20.7 | 16.6 | 15.8 | 22.5 | 20.9 | 15.3 | 14.3 | 24 | 19.7 | 16.9 | 15.2 | viability, T/C (second compound 0.1 µM, first compound 0.00316 µM): 38.1%; viability, T/C (second compound 0.1 µM, first compound 0.01 µM): 32%; viability, T/C (second compound 0.316 µM, first compound 0.00316 µM): 32.1%; viability, T/C (second compound 0.316 µM, first compound 0.01 µM): 28.7%; viability, T/C (second compound 1 µM, first compound 0.00316 µM): 33.5%; viability, T/C (second compound 1 µM, first compound 0.01 µM): 30.8%; viability, T/C (second compound 3.16 µM, first compound 0.00316 µM): 33.4%; viability, T/C (second compound 3.16 µM, first compound 0.01 µM): 27.9%; viability, T/C [22]: 22%; viability, T/C (second compound 10 µM, first compound 0.00316 µM): 25.7%; viability, T/C (second compound 10 µM, first compound 0.01 µM): 20.7%; viability, T/C [25]: 18.1%; viability, T/C [26]: 16.2%; viability, T/C [27]: 15%; viability, T/C [28]: 20.5%
COc1ccc([C@@H](O)c2cc(-c3ncnc4cc(N5CCOCC5)ccc34)c(F)cc2Cl)nn1 + NC1CC1c1ccc(-c2cccc(O)c2)cc1 | 361 | 173 | 82.5 | 164 | < 31.6 | 74.9 | 65.6 | 53 | 33.1 | 57.1 | 58.5 | 42.3 | 28.9 | 59.3 | 48.3 | 36 | 27.4 | 58.5 | 54.2 | 43.7 | viability, T/C [5]: 17.1%; viability, T/C [6]: 12.8%; viability, T/C [11]: 18%; viability, T/C [12]: 13.1%; viability, T/C [17]: 16.2%; viability, T/C [18]: 11%; viability, T/C [22]: 29.1%; viability, T/C [23]: 14.8%; viability, T/C [24]: 11.6%; viability, T/C [25]: 44.8%; viability, T/C [26]: 43.7%; viability, T/C [27]: 31.6%; viability, T/C [28]: 20.2%; viability, T/C [29]: 13.5%; viability, T/C [30]: 10.2%
